According to patent US12194050B2, “Thiadiazine derivatives” (RICHTER GEDEON NYRT., priority 2018, dated 2025):

How the values were obtained:
Male NMRI mice = experiment: Place recognition test (Y-maze), reversal of scopolamine-induced amnesia; type: in vivo; details: scopolamine 1 mg/kg i.p.
Description: In Vivo Pharmacology (Place Recognition Test)
Animals: Male NMRI mice (Toxicoop, Hungary)
Substances: Scopolamine was dissolved in saline and administered at 1 mg/kg dose i.p. Test compounds were administered 30 minutes before the acquisition trial (T1) and scopolamine after the acquisition trial at a volume of 0.1 ml/10 g.
Procedure: The task was carried out in a transparent plexiglass Y-maze (each arm has a length of 40 cm, an inner width of 11 cm and a height of 30 cm). Numerous visual cues were placed around the arms and were kept constant during the experiment. The test consisted of two trials (T1 and T2) separated by an intertrial interval of 30 minutes. Mice were placed in the starting arm of the maze at the beginning of each trial. In T1, one of the symmetric arms of the maze was closed (it will be novel in T2) and the animals were allowed to explore the maze for 5 minutes (acquisition phase). In T2, mice had free access to all three arms for 2 minutes (retrieval phase). The time spent with exploration in the novel and familiar arms during T2 was measured. Differences between the exploration times spent in the familiar vs. novel arms of the maze for each group were evaluated by MANOVA, followed by Duncan post hoc test.
Significant differences (^+p<0.05; ^++p<0.01; ^+++p<0.001) were observed between the exploration times spent in the novel vs. familiar arms of the maze.

human α7 nAchR = human α7 nAchR (Homo sapiens (Human), UniProt P36544); experiment: Human α7 nicotinic acetylcholine receptor [Ca2+]i assay (PAM, Ca2+ fluorometry); type: cell-based; details: Flp-In 293 cells expressing human α7 nAchR and human RIC-3; in presence of saturating agonist (mostly PNU-282987, 1 μM)
Chain of human α7 nAchR (P36544 23-502): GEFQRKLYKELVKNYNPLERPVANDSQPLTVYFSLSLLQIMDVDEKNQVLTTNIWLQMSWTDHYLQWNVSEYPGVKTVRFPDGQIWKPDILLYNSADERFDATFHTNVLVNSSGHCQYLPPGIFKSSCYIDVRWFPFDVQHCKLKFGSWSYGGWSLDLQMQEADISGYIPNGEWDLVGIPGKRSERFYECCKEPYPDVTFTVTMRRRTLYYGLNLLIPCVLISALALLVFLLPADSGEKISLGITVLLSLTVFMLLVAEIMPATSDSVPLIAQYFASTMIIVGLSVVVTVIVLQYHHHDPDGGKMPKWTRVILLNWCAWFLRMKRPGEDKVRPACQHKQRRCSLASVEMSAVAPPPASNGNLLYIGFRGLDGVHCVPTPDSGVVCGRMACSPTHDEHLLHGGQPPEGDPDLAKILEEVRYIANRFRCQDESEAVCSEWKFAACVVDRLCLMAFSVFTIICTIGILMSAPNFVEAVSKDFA
Description: Biological Activity Human α7 Nicotinic Acetylcholine Receptor [Ca^2+]i Assay
Cells: Flp-In 293 cells stably expressing human α7 nAchR and human RIC-3 (α7 cells, generated in house.)
Materials: 96-well plates coated with PDL (Falcon), culture medium, assay buffer, DMSO, FLIPR Calcium 5 kit (Molecular Devices), probenecid, agonist and PAM test compounds.
Brief Description of the Method (Ca^2+ Fluorometry)
α7 cells stably expressing human α7 nAchR were cultured in the medium detailed above, and were split twice a week. For the fluorometric measurements of cytosolic Ca^2+ ion concentration ([Ca^2+]i) cells were seeded in 96-well microplates at a density of 60000 cells/well and maintained overnight in a tissue culture incubator at 37° C. under an atmosphere of 95% air/5% CO2. The plating medium was identical with the culture medium. 50 μl of the growth medium was aspirated with a cell washer (BioTek Elx405UCVWS). Then 50 μl/well Calcium 5 kit diluted 2-fold in assay buffer was added manually using an 8-channel pipette. After an incubation period (20 minutes, 37° C.) 50 μl/well assay buffer containing vehicle (DMSO, 4% added) or reference α7 PAMs (4×of the final concentration) were added manually and the cells were incubated for an additional 10 minutes at 37° C. Baseline and agonist-evoked [Ca2+]i-changes were monitored with FlexStation II (Molecular Devices, Sunnyvale, Calif.), a plate reader fluorometer with integrated 8-channel fluid addition capability. Fluorescence measurements were carried out at 37° C. The dye was excited at 485 nm, emission was sampled at 525 nm at 1.4-s intervals. Baseline was recorded for 20 seconds followed by agonist stimulation. 50 μl 4× concentrated agonist solution was added to the cells using the pipettor of FlexStation II and fluorescence was monitored for an additional 40 seconds. Final DMSO concentration was 1% for all treatments. To achieve this, a series of DMSO stock solutions were prepared from all test compounds. These stocks were stored under 0° C. and were further diluted in assay buffer to obtain the desired final concentration immediately before the measurement. Agonist and PAM concentration-response studies were conducted in the presence of saturating concentrations of PAMs (mostly PNU-120596, 5 μM) and agonists (mostly PNU-282987, 1 μM), respectively. Results were expressed as ΔF/F values using SoftMax Pro software (Molecular Devices), where F was the resting fluorescence preceding agonist application and ΔF was the increase in fluorescence at a given time (ΔF=maximum fluorescence intensity values after stimulation minus average fluorescence intensity values before stimulation). In all experiments, all treatments were measured in multiple wells in parallel, and the mean ΔF/F values were used for analysis.

Row | EC50 (human α7 nAchR) [µM] | SMILES | reversal of the scopolamine-induced amnesia; significance of exploration time novel vs. familiar arm (Male NMRI mice; 1 mg/kg i.p.) | reversal of the scopolamine-induced amnesia; significance of exploration time novel vs. familiar arm (Male NMRI mice; 3 mg/kg i.p.) | reversal of the scopolamine-induced amnesia; significance of exploration time novel vs. familiar arm (Male NMRI mice; 10 mg/kg i.p.)
1 | 0.43 | COc1ccc(C2=NS(=O)(=O)N(C)C(C(=O)Nc3cccc(C)c3)=C2)cc1OC [Example 1, 5-(3,4-dimethoxyphenyl)-2-methyl-N-(3-methylphenyl)-1,1-dioxo-2H-1λ^6,2,6-thiadiazine-3-carboxamide] | ++ (++p < 0.01) | +++ (+++p < 0.001) | +++ (+++p < 0.001)
2 | 0.23 | Cc1cccc(NC(=O)C2=CC(c3ccc4c(c3)c(C)nn4C)=NS(=O)(=O)N2C)c1 [Example 21] | ++ (++p < 0.01) | +++ (+++p < 0.001) | ++ (++p < 0.01)
3 | 0.34 | CCN1C(C(=O)Nc2cccc(C)c2)=CC(c2ccc(OC)c(OC)c2)=NS1(=O)=O [Example 29] | +++ (+++p < 0.001) | ++ (++p < 0.01) | +++ (+++p < 0.001)
4 | 0.05 | CCN1C(C(=O)Nc2cccc(C(F)(F)F)n2)=CC(c2ccc(OC)c(OC)c2)=NS1(=O)=O [Example 33] | +++ (+++p < 0.001) | ++ (++p < 0.01) | ++ (++p < 0.01)
5 | 0.045 | CCN1C(C(=O)Nc2cccc(OC)c2)=CC(c2ccc(OC)c(C(F)(F)F)c2)=NS1(=O)=O [Example 37] | +++ (+++p < 0.001) | ++ (++p < 0.01) | +++ (+++p < 0.001)
6 | 0.035 | COc1ccc(C2=NS(=O)(=O)N(C(C)C)C(C(=O)Nc3cccc(C(F)(F)F)n3)=C2)cc1OC [Example 91] | +++ (+++p < 0.001) | + (+p < 0.05) | +++ (+++p < 0.001)
7 | 0.34 | CCCN1C(C(=O)Nc2cccc(C(F)(F)F)c2)=CC(c2ccc(OC)c(OC)c2)=NS1(=O)=O [Example 94] | +++ (+++p < 0.001) | +++ (+++p < 0.001) | +++ (+++p < 0.001)
8 | 0.055 | COc1ccc(C2=NS(=O)(=O)N(C(C)C)C(C(=O)Nc3cccc(F)n3)=C2)cc1OC [Example 123] |  |  | 
9 | 0.11 | CC(C)N1C(C(=O)Nc2cncc(C(F)(F)F)n2)=CC([C@H]2CC[C@H](C(F)(F)F)CC2)=NS1(=O)=O [Example 124] |  |  | 
10 | 0.045 | CC(C)N1C(C(=O)Nc2cccc(F)n2)=CC([C@H]2CC[C@H](C(F)(F)F)CC2)=NS1(=O)=O [Example 125] |  |  | 
11 | 0.22 | CC(C)N1C(C(=O)Nc2cccc(C(F)(F)F)n2)=CC(C2CCC(F)(F)CC2)=NS1(=O)=O [Example 126] |  |  | 
12 | 0.58 | CC(C)N1C(C(=O)Nc2cccc(F)n2)=CC(C2CCC(F)(F)CC2)=NS1(=O)=O [Example 127] |  |  | 
13 | 0.31 | COCCN1C(C(=O)Nc2cccc(C(F)(F)F)n2)=CC([C@H]2CC[C@H](C(F)(F)F)CC2)=NS1(=O)=O [Example 128] |  |  | 
14 | 0.96 | COCCN1C(C(=O)Nc2cccc(C(F)(F)F)n2)=CC(C2CCC(F)(F)CC2)=NS1(=O)=O [Example 130] |  |  | 
15 | 1.8 | COCCN1C(C(=O)Nc2cccc(F)n2)=CC(C2CCC(F)(F)CC2)=NS1(=O)=O [Example 131] |  |  | 
16 | 0.035 | O=C(Nc1cccc(F)n1)C1=CC([C@H]2CC[C@H](C(F)(F)F)CC2)=NS(=O)(=O)N1CC1CC1 [Example 132] |  |  | 
17 | 0.23 | O=C(Nc1ccc(F)cn1)C1=CC([C@H]2CC[C@H](C(F)(F)F)CC2)=NS(=O)(=O)N1CC1CC1 [Example 133] |  |  | 
18 | 0.08 | O=C(Nc1cccc(C(F)(F)F)n1)C1=CC(C2CCC(F)(F)CC2)=NS(=O)(=O)N1CC1CC1 [Example 134] |  |  | 
19 | 0.12 | O=C(Nc1cccc(F)n1)C1=CC(C2CCC(F)(F)CC2)=NS(=O)(=O)N1CC1CC1 [Example 135] |  |  | 
20 | 0.15 | CC(C)N1C(C(=O)Nc2ccnc(C(F)(F)F)n2)=CC([C@H]2CC[C@H](C(F)(F)F)CC2)=NS1(=O)=O [Example 136] |  |  | 
21 | 0.13 | O=C(Nc1ccnc(C(F)(F)F)n1)C1=CC([C@H]2CC[C@H](C(F)(F)F)CC2)=NS(=O)(=O)N1CC1CC1 [Example 137] |  |  | 
22 | 0.14 | CC(C)N1C(C(=O)Nc2cncc(F)n2)=CC([C@H]2CC[C@H](C(F)(F)F)CC2)=NS1(=O)=O [Example 138] |  |  | 
23 | 0.15 | O=C(Nc1cncc(F)n1)C1=CC([C@H]2CC[C@H](C(F)(F)F)CC2)=NS(=O)(=O)N1CC1CC1 [Example 139] |  |  | 
